Paper PMC3954793, “SHP-2 Binds to Caveolin-1 and Regulates Src Activity via Competitive Inhibition of CSK in Response to H2O2 in Astrocytes” (PLoS ONE, 2014)
“Also recorded” adds a separate entry of the source. Where two headings read alike, the source gives them in different places. Square brackets hold non-standard residues; d marks the D form. Ends that are not written are not given here. pY = N[C@@H](Cc1ccc(OP(=O)(O)O)cc1)C(=O)O

Experiments:
[1] = tested on: caveolin-1 (Tyr 14 phosphorylation); conditions: rat primary astrocytes; 1 mM H2O2, 10 min; immunoblot
[2] = tested on: caveolin-1 (Tyr 14 phosphorylation); assay: Immunoblot of p-caveolin-1 in human astroglioma cells and HUVECs; assay type: cell-based; conditions: for suppression of H2O2-induced caveolin-1 phosphorylation: pretreated 30 min, then 5 mM H2O2 for 10 min, percentage of H2O2-treated values, three independent experiments
Excerpt: HUVECs were utilized as a positive control. Data are representative of at least three experiments. […] Data are representative of three independent experiments.

[3] = tested on: caveolin-1 (Tyr 14 phosphorylation); conditions: bovine pulmonary artery endothelial cells and placenta artery endothelial cells; ref [28]–[30]; cited from earlier work
ERK phosphorylation = assay: Immunoblot of p-ERK; assay type: cell-based, human; conditions: CRT-MG cells; 5 mM H2O2, 10 min
Procedure: (§1) Cells were plated and transfected with green fluorescence protein (GFP) siRNA (Samchully Pharm Co. Ltd., Seoul, Korea) as a control group and human CSK siRNA and human SHP-2 siRNA from Bioneer (Daejeon, Korea) using Lipofectamine RNAiMAX (Invitrogen, Carlsbad, CA, USA) according to the manufacturer’s instructions to achieve a final concentration of 300 nM.
(§2) Figure 7 SHP-2 and CSK reciprocally regulate H2O2-induced Src activation. […] Tubulin was evaluated as a loading control. Bottom panel, Densitometric quantification of p-Src Y419 levels (empty bars) and p-Src Y530 levels (filled bars), normalized to the level of total Src. Results are expressed as percentage of H2O2-treated values in control siRNA presented as mean ± SD. (*p<0.05 vs. H2O2-treated cells transfected with control siRNA; #p<0.05 between SHP-2 siRNA-transfected cells and CSK siRNA-transfected cells; n = 3). (B) Inhibition of SHP-2 by PTPi IV attenuated the H2O2-induced activation of the Src signaling pathway. CRT-MG cells were treated with 5 mM H2O2 or not for 10 min in the presence of 5 or 10 µM PTPi IV for 30 min, and lysed in cold-RIPA buffer. Antibodies against p-SHP-2, SHP-2, p-Src, Src, p-FAK, FAK, p-ERK, ERK, and tubulin were used for immunoblotting. Bottom panel, Densitometric quantification of p-Src Y419 levels (empty bars) and p-Src Y530 levels (filled bars), normalized to the level of total Src. […] (p, phospho).

caveolin-1/SHP-2 complex = conditions: CRT-MG cells; 5 mM H2O2, 10 min; PLA red dots; repeated 4 times
caveolin-1/CSK complex = assay: Co-immunoprecipitation of caveolin-1 and CSK; assay type: cell-based, human; conditions: CRT-MG cells; H2O2 10 min; IP anti-caveolin-1
Procedure: cDNA encoding full-length human caveolin-1 was obtained from Thermo Scientific (Waltham, MA, USA). The Y14A caveolin-1 mutant was generated using a QuickChange site-directed mutagenesis kit (Stratagene, Santa Clara, CA, USA) using PCR. pCMV-SPORT6-caveolin-1 cDNA (25 ng) was used as a template and added to dNTP mix, Pfu buffer, Pfu turbo DNA polymerase and 125 ng of each of the mutagenic primers: sense, 5′-[…]-3′ and antisense, 5′-[…]-3′. Samples were then incubated at 95°C for 1 min, then for 20 cycles of 95°C for 1 min, 65°C for 4 min, and 68°C for 12 min. The methylated parental DNA template in the PCR product was digested using the DpnI (10 U) restriction enzyme for 3 h at 37°C. […] After mutagenesis, 1 µg of caveolin-1 wild-type (WT) or Y14A mutant DNA was transfected into HEK 293T cells using VIVAMAGIC transfection reagent (VIVAGEN, Seongnam, Korea) containing 10% FBS according to the manufacturer’s instructions for 24 h before treatment with 5 mM H2O2 for 10 min; the cells were then analyzed by immunoblotting.
as §1, with “nM. […]” for “nM.”

FAK phosphorylation = assay: Immunoblot of p-FAK; assay type: cell-based, human; conditions: CRT-MG cells; 5 mM H2O2, 10 min
Procedure: as §2

recombinant GST-SHP-2 = target: T1, recombinant GST-SHP-2 (Homo sapiens, UniProt Q06124); assay: PepSPOTs assay, rGST-SHP-2; assay type: binding; conditions: 13-mer peptides of caveolin-1 (1–85) with phosphorylated Tyr 6, 14, 25, 42 on cellulose membrane; 1 µg rGST-SHP-2, overnight; repeated 3 times
T1 construct: purchased Abnova (Taipei, Taiwan)
T1 sequence (Q06124 1-593): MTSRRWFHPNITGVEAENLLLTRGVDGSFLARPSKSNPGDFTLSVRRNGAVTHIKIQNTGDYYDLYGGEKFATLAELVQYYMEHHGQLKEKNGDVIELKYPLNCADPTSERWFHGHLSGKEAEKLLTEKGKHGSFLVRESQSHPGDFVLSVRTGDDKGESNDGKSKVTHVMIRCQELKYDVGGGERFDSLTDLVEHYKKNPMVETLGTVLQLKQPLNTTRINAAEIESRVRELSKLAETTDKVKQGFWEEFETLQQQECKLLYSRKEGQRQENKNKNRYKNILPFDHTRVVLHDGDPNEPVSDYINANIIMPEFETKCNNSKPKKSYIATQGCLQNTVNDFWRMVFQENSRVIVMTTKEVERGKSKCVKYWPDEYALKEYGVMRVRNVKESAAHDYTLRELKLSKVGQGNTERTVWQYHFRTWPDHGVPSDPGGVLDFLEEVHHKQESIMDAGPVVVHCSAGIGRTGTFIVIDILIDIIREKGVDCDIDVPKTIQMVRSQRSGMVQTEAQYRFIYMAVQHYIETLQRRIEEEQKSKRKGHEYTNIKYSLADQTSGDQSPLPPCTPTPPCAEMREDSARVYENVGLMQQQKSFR
Procedure: (§3) Identification of binding sites for recombinant SHP-2 and CSK in the caveolin-1 protein was performed using PepSPOTs (JPT Peptide Technologies GmbH, Berlin, Germany). Synthetic peptide sequences of caveolin-1 (1–85 and 1–28) were used in this study. The peptide library contained either 13-mer peptides that overlapped by 5 residues or 13-mer peptides that overlapped by 8 residues. Each spot carried approximately 5 nmol of peptide covalently bound to the cellulose-betaalanine-membrane (N-terminus: acetyl). Two identical membranes were incubated overnight with either recombinant GST-SHP-2 (rGST-SHP-2) or GST-CSK (rGST-CSK) respectively, and immunoblotting was performed to detect rGST-SHP-2/caveolin-1 peptide and rGST-CSK/caveolin-1 peptide interactions.
(§4) Figure 4 Both SHP-2 and CSK bind specifically to phosphorylated caveolin-1 at Tyr 14. (A) Schematic diagram of caveolin-1. (B) A peptide array assay was performed to identify the binding site for recombinant SHP-2 and CSK in the caveolin-1 protein. Schematic diagram of the synthetic peptide sequences of caveolin-1 (1–85) spotted on the membrane used for study is shown in the left panel. The peptide numbering starts with 1 in the left corner and the phosphorylated tyrosine residues are indicated in bold. […]

recombinant GST-CSK = assay: PepSPOTs assay, rGST-CSK; assay type: binding; conditions: 13-mer peptides of caveolin-1 (1–85) with phosphorylated Tyr 6, 14, 25, 42 on cellulose membrane; 1 µg rGST-CSK, overnight; repeated 3 times
Procedure: as §3, §4

## OO [H2O2, hydrogen peroxide]
[1]
  phosphorylation of caveolin-1 at Tyr 14: induced the phosphorylation of caveolin-1; also recorded: strongly induced phosphorylation of caveolin-1 at Tyr 14
[2]; CRT-MG cells, H2O2 0–5 mM, 10 min, normalized to tubulin, mean ± SD from three experiments
  level of Tyr-phosphorylated caveolin-1, dose dependence: dose-dependent increase in the level of Tyr-phosphorylated caveolin-1 up to a concentration of 5 mM
[2]; HUVECs (positive control), 1 mM H2O2, 10 min, immunoblot
  phosphorylation of caveolin-1 at Tyr 14: induced the phosphorylation of caveolin-1
[3]
  phosphorylation of caveolin-1 at Tyr 14: induces the phosphorylation of caveolin-1 at Tyr 14
ERK phosphorylation
  phosphorylation of ERK 1/2, H2O2-induced: leads to phosphorylation of ERK 1/2 and FAK
caveolin-1/SHP-2 complex
  direct interaction between SHP-2 and caveolin-1: a direct interaction between SHP-2 and caveolin-1 (indicated by red dots) occurred
caveolin-1/CSK complex
  complex formation between caveolin-1 and CSK: complex formation occurred between caveolin-1 and CSK
FAK phosphorylation
  phosphorylation of FAK, H2O2-induced: leads to phosphorylation of ERK 1/2 and FAK

## CC(=O)N[C@@H](CS)C(=O)O [NAC, N-acetyl-L-cysteine]
[2]; CRT-MG cells
  suppression of H2O2-induced caveolin-1 phosphorylation: considerably suppressed H2O2-induced caveolin-1 phosphorylation in a dose-dependent manner; also recorded: modest compared to catalase

## catalase
[2]; CRT-MG cells
  suppression of H2O2-induced caveolin-1 phosphorylation: considerably suppressed H2O2-induced caveolin-1 phosphorylation in a dose-dependent manner; also recorded: completely abrogates H2O2-induced caveolin-1 phosphorylation

## spot 2: residues 9–21 of caveolin-1 (spot 2), which included Tyr 14 (Ac-SEGHL[pY]TVPIREQ)
Recombinant GST-SHP-2
  binding of rGST-SHP-2 to caveolin-1 peptide spots: only 1 spot of bound recombinant SHP-2 was detected
Recombinant GST-CSK
  binding of rGST-CSK to caveolin-1 peptide spots: strong binding
